Measured values from patent US12180192B2, “Modulators of THR-β and methods of use thereof” (ALIGOS THERAPEUTICS, INC., priority 2019, dated 2024).

Tests used:
[1] = tested on: CPT1A gene expression in Huh-7 cells; experiment: Huh-7 differential gene expression, CPT1A RT-qPCR (Assay 3); type: cell-based; conditions: Homo sapiens, Huh-7, 24 h, Table 6, Huh-7 cells, CPT1A, 24 hr treatment
Protocol: Huh-7 Differential Gene Expression (Assay 3)
Fetal bovine serum (FBS) was incubated with washed resin (50 mg resin/mL FBS; resin weight is dry weight of resin prior to washing) for 5 hr at room temperature on a rotor. The FBS was separated from the resin via centrifugation and incubated with new, washed resin for 18 h at room temperature on a rotor.
Cell Culture and Drug Treatment
Huh-7 cells were cultured in DMEM (10-013-CM, Corning) supplemented with 10% FBS and 1% Pen-Strep at 37° C. under 5% C02. When 70-80% confluence was reached, the cells were removed by trypsinization. The medium was aspirated from the cell culture dish, the cell monolayer was washed with 1×PBS, and 0.05% trypsin, 0.53 mM EDTA (25-052-CV, Corning) solution was added to the dish. After 3 min incubation, the cells were detached completely by repeatedly pipetting solution onto the monolayer. Equal volume of DMEM supplemented with 10% rFBS and 1% Pen-Strep (TH-depleted DMEM) was added to the dish to inactivate the trypsin. The cell suspension was centrifuged at 350×g at room temperature for 3 min. The supernatant was aspirated out and the cell pellet was resuspended in TH-depleted DMEM. […] After 24 hr incubation, the media was replaced with treatment media. All compounds were serially diluted in DMSO and final concentrations were reached by dilution in TH-depleted DMEM (0.1% DMSO). The cells were incubated in treatment media for 24 hr. Treatments were performed in biological duplicates.
After 24 hr in treatment media, the cells were lysed directly on the culture plates and cDNA was produced using the TaqMan™ Fast Advanced Cells-to-CT™ Kit (A35374, Invitrogen) and following the manufacturer's protocol. RT-qPCR for CPT1A (Hs00912671_m1) and two housekeeping genes, ACTB (Hs01060665_g1) and TFG (Hs02832013_g1), was performed using TaqMan™ Fast Advanced Master Mix. RT-qPCR reactions were run on the qTOWER^3 84 G (Analytik Jena) in technical duplicates.
ΔRn values were obtained from the qPCRsoft384 1.0 software and CPT1A gene expression was quantified via the 2-ΔΔCt method. Dose-response curves were generated using GraphPad Prism 8 using four parameter logistic equation without top constraint to derive EC50 and Emax.

[2] = biological target: T1, human thyroid receptor beta ligand-binding domain (LBD) (Homo sapiens, UniProt P10828); experiment: TR-FRET thyroid receptor beta coactivator assay (THR biochemical assay, Assay 1); conditions: for EC50: THR-beta, TR-FRET coactivator assay, read-out: Activity category Assay 1 (EC50, THR-beta agonist); for Emax: Table 5, Assay 1, THRβ, read-out: Activity category Assay 1 THRβ (Emax)
T1 construct: purchased Invitrogen
T1 sequence (P10828 217-461 limits assumed): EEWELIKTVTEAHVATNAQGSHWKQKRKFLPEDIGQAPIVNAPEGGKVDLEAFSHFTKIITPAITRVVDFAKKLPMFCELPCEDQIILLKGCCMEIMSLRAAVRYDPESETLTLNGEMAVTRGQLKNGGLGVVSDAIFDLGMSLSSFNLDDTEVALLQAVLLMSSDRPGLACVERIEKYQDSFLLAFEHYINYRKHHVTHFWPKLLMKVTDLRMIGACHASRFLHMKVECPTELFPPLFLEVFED
How it was run: (§1)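 GST-tagged human TRβ or TRα LBD, 1 nM final (stated for β), with fluorescein-SRC2-2 coactivator peptide (200 nM) and Tb-anti-GST antibody (2 nM). Agonists serially diluted, 1% DMSO final. 1 h incubation at rt in the dark; TR-FRET read as rise in fluorescein and drop in terbium emission.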

[3] = biological target: T2, human thyroid receptor alpha ligand-binding domain (LBD) (Homo sapiens, UniProt P10827); experiment: TR-FRET thyroid receptor alpha coactivator assay (THR biochemical assay, Assay 1); conditions: for EC50: Table 4, THR-alpha, read-out: Activity category Assay 1 (EC50, THR-alpha agonist activity); for Emax: Table 5, THRα, read-out: Activity category Assay 1 THRα (Emax)
T2 construct: purchased Invitrogen
How it was run: as §1

THR beta = biological target: T3, THR beta (Homo sapiens, UniProt P10828); experiment: HEK293T THR beta/RXR luciferase reporter assay (Assay 2); type: cell-based; conditions: for Emax: HEK-293T, Table 5, Assay 2, THRβ, read-out: Activity category Assay 2 THRβ (Emax); for EC50: THR-beta, HEK293T reporter assay, read-out: Activity category Assay 2 (EC50, THR-beta agonist)
T3 construct: expressed in transfected cells; host or cells: HEK293T (ATCC CRL-3216)
T3 sequence (P10828 1-461): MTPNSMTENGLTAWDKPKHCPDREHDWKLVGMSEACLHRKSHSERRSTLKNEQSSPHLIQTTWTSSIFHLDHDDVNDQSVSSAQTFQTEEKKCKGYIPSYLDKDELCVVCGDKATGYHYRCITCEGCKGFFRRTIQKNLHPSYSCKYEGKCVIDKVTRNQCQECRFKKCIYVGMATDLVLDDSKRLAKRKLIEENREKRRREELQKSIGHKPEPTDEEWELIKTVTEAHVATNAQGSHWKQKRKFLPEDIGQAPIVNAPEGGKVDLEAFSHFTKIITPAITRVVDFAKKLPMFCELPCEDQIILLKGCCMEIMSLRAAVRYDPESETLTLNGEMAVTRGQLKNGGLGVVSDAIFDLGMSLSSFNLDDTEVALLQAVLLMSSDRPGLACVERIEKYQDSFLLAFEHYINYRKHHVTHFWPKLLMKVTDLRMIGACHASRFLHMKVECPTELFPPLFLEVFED
T3 sequence (P19793 1-462 partner): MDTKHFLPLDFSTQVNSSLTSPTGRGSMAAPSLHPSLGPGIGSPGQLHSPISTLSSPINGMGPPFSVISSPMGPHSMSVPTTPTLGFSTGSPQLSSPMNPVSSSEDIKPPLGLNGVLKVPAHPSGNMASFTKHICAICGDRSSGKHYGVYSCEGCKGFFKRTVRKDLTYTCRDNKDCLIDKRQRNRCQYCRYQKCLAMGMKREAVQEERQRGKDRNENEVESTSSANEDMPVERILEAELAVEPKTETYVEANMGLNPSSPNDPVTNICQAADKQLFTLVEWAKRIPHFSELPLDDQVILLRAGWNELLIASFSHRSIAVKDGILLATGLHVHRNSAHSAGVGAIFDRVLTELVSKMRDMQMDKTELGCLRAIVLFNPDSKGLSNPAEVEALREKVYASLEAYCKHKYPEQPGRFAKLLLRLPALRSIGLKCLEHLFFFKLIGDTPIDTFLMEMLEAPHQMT
How it was run: (§2)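 HEK293T cells transiently transfected with TRE-luciferase reporter, RXR, and THR alpha or THR beta plasmid; ten five-fold compound dilutions from DMSO added for 18-24 h. One-Glo luminescence read; percent agonism normalized between negative and positive controls.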

THR alpha = biological target: T4, THR alpha (Homo sapiens, UniProt P10827); experiment: HEK293T THR alpha/RXR luciferase reporter assay (Assay 2); type: cell-based; conditions: Assay 2; for Emax: HEK-293T, Table 5, THRα, read-out: Activity category Assay 2 THRα (Emax); for EC50: Table 4, THR-alpha, read-out: Activity category Assay 2 (EC50, THR-alpha agonist activity)
T4 construct: expressed in transfected cells; host or cells: HEK293T (ATCC CRL-3216)
T4 sequence (P10827 1-410 isoform P10827-2): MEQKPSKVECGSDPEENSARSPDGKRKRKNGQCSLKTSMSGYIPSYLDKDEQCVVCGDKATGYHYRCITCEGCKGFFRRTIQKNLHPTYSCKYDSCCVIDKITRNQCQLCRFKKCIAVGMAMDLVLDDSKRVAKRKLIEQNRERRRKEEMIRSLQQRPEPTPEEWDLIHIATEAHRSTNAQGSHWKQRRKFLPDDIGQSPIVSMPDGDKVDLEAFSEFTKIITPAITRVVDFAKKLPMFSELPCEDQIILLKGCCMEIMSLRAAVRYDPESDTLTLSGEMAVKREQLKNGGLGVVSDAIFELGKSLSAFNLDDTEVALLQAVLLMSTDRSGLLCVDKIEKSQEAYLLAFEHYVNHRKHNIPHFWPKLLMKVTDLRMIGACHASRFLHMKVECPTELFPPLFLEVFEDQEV
T4 sequence (P19793 1-462 partner): T3 sequence (P19793 1-462 partner)
How it was run: as §2

## CC(C)c1cc(Oc2c(Cl)cc(-n3nc(CC(=O)O)c(=O)[nH]c3=O)cc2Cl)n[nH]c1=O [Compound 13, 2-(2-(3,5-dichloro-4-((5-isopropyl-6-oxo-1,6-dihydropyridazin-3-yl)oxy)phenyl)-3,5-dioxo-2,3,4,5-tetra-hydro-1,2,4-triazin-6-yl)acetic acid]
[1]; read-out: Activity category Assay 3 EC50
  EC50: > 100 nM
[1]; read-out: Activity category Assay 3 Emax
  Emax: > 75%

## CC(C)NC(=O)c1c[nH]c2ccc(Oc3c(Cl)cc(-n4nc(C#N)c(=O)[nH]c4=O)cc3Cl)cc12 [Compound 20]
[2]
  EC50: > 25000 nM
  Emax: < 50%
[3]
  EC50: > 25000 nM
  Emax: < 50%
THR beta
  Emax: < 50%
  EC50: > 10000 nM
THR alpha
  Emax: < 50%
  EC50: > 10000 nM

## N#CC1CCC1c1cc(Oc2c(Cl)cc(-n3nc(N)c(=O)[nH]c3=O)cc2Cl)n[nH]c1=O (stereo not shown) [Compound 104]
[2]
  EC50: 250 to 1000 nM
  Emax: < 50%
[3]
  EC50: 1000 to 25000 nM
  Emax: 50 to 75%
THR beta
  Emax: 50 to 75%
  EC50: 1000 to 10000 nM
THR alpha
  Emax: < 50%
  EC50: > 10000 nM

## CCCc1c[nH]c2ccc(Oc3c(Cl)cc(-n4nc(C#N)c(=O)[nH]c4=O)cc3Cl)cc12 [Compound 48, 2-[3,5-dichloro-4-[(3-propyl-1H-indol-5-yl)oxy]phenyl]-3,5-dioxo-4H-1,2,4-triazine-6-carbonitrile]
[2]
  EC50: < 50 nM
  Emax: 50 to 75%
[3]
  EC50: < 50 nM
  Emax: 50 to 75%
THR beta
  Emax: > 75%
  EC50: 50 to 250 nM
THR alpha
  Emax: > 75%
  EC50: 250 to 1000 nM

## CC(c1cc(Oc2c(Cl)cc(-n3nc(N)c(=O)[nH]c3=O)cc2Cl)n[nH]c1=O)C1CC(F)(F)C1 (stereo not shown) [Compound 61, 6-amino-2-[3,5-dichloro-4-([5-[1-(3,3-difluorocyclobutyl)ethyl]-6-oxo-1H-pyridazin-3-yl]oxy)phenyl]-4H-1,2,4-tri-azine-3,5-dione]
[2]
  EC50: < 50 nM
  Emax: < 50%
[3]
  EC50: 250 to 1000 nM
  Emax: 50 to 75%
THR beta
  Emax: > 75%
  EC50: 50 to 250 nM
THR alpha
  Emax: > 75%
  EC50: 250 to 1000 nM

## Nc1nn(-c2cc(Cl)c(Oc3cc(C4Cc5ccccc5C4)c(=O)[nH]n3)c(Cl)c2)c(=O)[nH]c1=O [Compound 155]
[2]
  EC50: 50 to 250 nM
  Emax: < 50%
[3]
  EC50: > 25000 nM
  Emax: < 50%
THR beta
  Emax: < 50%
  EC50: 250 to 1000 nM
THR alpha
  Emax: < 50%
  EC50: > 10000 nM

## CC(C)/C=C1\C(=O)Nc2ccc(Oc3c(Cl)cc(-n4nc(N)c(=O)[nH]c4=O)cc3Cl)cc21 [Compound 147, 6-amino-2-[3,5-dichloro-4-[(3Z)-3-(2-methylpropylidene)-2-oxo-indolin-5-yl]oxy-phenyl]-1,2,4-triazine-3,5-dione]
[2]
  EC50: < 50 nM
  Emax: 50 to 75%
[3]
  EC50: < 50 nM
  Emax: < 50%
THR beta
  Emax: > 75%
  EC50: < 50 nM
THR alpha
  Emax: > 75%
  EC50: < 50 nM

## Nc1nn(-c2cc(Cl)c(Oc3cc(Cc4ccc(=O)[nH]n4)c(=O)[nH]n3)c(Cl)c2)c(=O)[nH]c1=O [Compound 160, 6-amino-2-[3,5-dichloro-4-([6-oxo-5-[(6-oxo-1H-pyridazin-3-yl)methyl]-1H-pyridazin-3-yl]oxy)phenyl]-4H-1,2,4-triazine-3,5-dione]
[2]
  EC50: 1000 to 25000 nM
  Emax: < 50%
[3]
  EC50: 1000 to 25000 nM
  Emax: < 50%
THR beta
  Emax: < 50%
  EC50: > 10000 nM
THR alpha
  Emax: < 50%
  EC50: > 10000 nM

## Cc1cc(-n2nc(N)c(=O)[nH]c2=O)cc(C)c1Cc1ccc2[nH]c(=O)n(C(C)C)c2c1 [Compound 149, 6-amino-2-(4-((3-isopropyl-2-oxo-2,3-dihydro-1H-benzo[d]imidazol-5-yl)methyl)-3,5-dimethylphenyl)-1,2,4-triazine-3,5(2H,4H)-dione]
[2]
  EC50: < 50 nM
  Emax: < 50%
[3]
  EC50: < 50 nM
  Emax: < 50%
THR beta
  Emax: > 75%
  EC50: < 50 nM
THR alpha
  Emax: > 75%
  EC50: < 50 nM

## CC(C)c1cc(Oc2c(Cl)cc(-c3nn(C(F)F)c(=O)[nH]c3=O)cc2Cl)n[nH]c1=O [Compound 28, 6-[3,5-dichloro-4-[(5-isopropyl-6-oxo-1H-pyridazin-3-yl)oxy]phenyl]-2-(difluoromethyl)-4H-1,2,4-triazine-3,5-dione]
[2]
  EC50: 50 to 250 nM
  Emax: < 50%
[3]
  EC50: 250 to 1000 nM
  Emax: 50 to 75%
THR beta
  Emax: > 75%
  EC50: 250 to 1000 nM
THR alpha
  Emax: 50 to 75%
  EC50: 1000 to 10000 nM

## N#Cc1nn(-c2cc(Cl)c(Oc3ccc4[nH]cc(C#N)c4c3)c(Cl)c2)c(=O)[nH]c1=O [Compound 17, 5-[2,6-dichloro-4-(6-cyano-3,5-dioxo-4H-1,2,4-triazin-2-yl)phenoxy]-1H-indole-3-carbonitrile]
[2]
  EC50: < 50 nM
  Emax: < 50%
[3]
  EC50: > 25000 nM
  Emax: < 50%
THR beta
  Emax: > 75%
  EC50: 1000 to 10000 nM
THR alpha
  Emax: < 50%
  EC50: > 10000 nM
